Structures are written as SMILES.

A short description of data set [1]: pharmacological screening (blood pressure, sympathomimetric and central nervous system effects; analgesic, spasmolytic, anti-inflammatory, broncholytic properties). To be noted: in vivo.
Data set [2] has as its system phenylquinone-induced writhing reactions in mice. The experiment in a line: writhing test on mice (phenylquinone i.p.), peroral application. The data set is classed as in vivo. The note with it: for ΣR x ± sx (frequency of writhing reactions) / % effect (Decrease in the writhing reactions): n = 10, mice. On the procedure: In this test p-benzoquinone (phenylquinone) in a 0.02% aqueous solution in a volume of 10 ml/kg of body weight i.p. serves to initiate pain. The typical writhing reactions which occur after a certain latency period are recorded in their frequency; decrease in the writhing frequency is evaluated as analgesic effect. The following Table indicates the numerical connection between dosage and effect after peroral application of the active ingredient.
^o T-test for independent random samples, bilateral questioning, significant down to 0.05, below 0.001 not given. n = number of test animals. The values are mean values ± mean error of the mean value.
Background: In writhing tests, fewer writhes than in controls are read as antinociception.

In another data set the test system is central nervous system. The data set can be described thus: behavior of animals treated with the compound. Also on record: species or system mice. The note with it: mouse, in vivo.
A short description of data set [3]: effective dose compared with range of toxic doses. To be noted: in vivo.

In the case of `O=[N+]([O-])c1cccc(C2=NN3CCN=C3c3ccccc3S2)c1` [Example 4, Imidazolino-[1,2-d]-benzo-[f]-2-(3-nitrophenyl)-1,3,4-thiadiazepine], the “pharmacological effect, particularly analgesic properties” value in data set [1] is listed as “singled out for their pharmacological effect, particularly their analgesic properties”.

As a reminder, the ED50 is the dose that gives a 50% effect, or the effect in half of the subjects. Lower therefore signals an effect at a small dose. For the compound `O=[N+]([O-])c1cccc(C2=NN3CCCN=C3c3ccccc3S2)c1` [Example 18, Tetrahydropyrimidino-[1,2-d]-benzo-[f]-2-(3-nitrophenyl)-1,3,4-thiadiazepine], the “ΣR x ± sx (frequency of writhing reactions)” value in data set [2] (4.64 mg/kg peroral) is on record as 14.7 ± 2.1; in data set [2] (10 mg/kg peroral) it was 12.7 ± 2.4; in data set [2] (21.5 mg/kg peroral) it was 10.4 ± 1.9; in data set [2] (46.4 mg/kg peroral), 8.9 ± 1.5; in data set [2] (100 mg/kg peroral) it was 6.2 ± 1.7; in data set [2] (215 mg/kg peroral), 0.8 ± 0.8. For the same compound, the “% effect (Decrease in the writhing reactions)” value in data set [2] (4.64 mg/kg peroral, P <0.02) is listed as 28.1 ± 10.3%; in data set [2] (10 mg/kg peroral, P <0.002), 37.9 ± 11.8%; in data set [2] (21.5 mg/kg peroral, P <0.001) it was 49.1 ± 9.4%; in data set [2] (46.4 mg/kg peroral, P <0.001), 56.5 ± 7.2%; in data set [2] (100 mg/kg peroral, P <0.001), 69.7 ± 8.4%; in data set [2] (215 mg/kg peroral, P <0.001) it was 96.1 ± 3.9%. Further, it took a dose of 21.6 mg/kg to reach the 50% effect level in data set [2] (Mus musculus, po, peroral application, mice, from regression line) (ED50). Besides, the “pharmacological effect, particularly analgesic properties” value in data set [1] is reported as “singled out for their pharmacological effect, particularly their analgesic properties”. In addition, the “behavior of treated animals” value with central nervous system is reported as “consistent with a central nervous system depressant action”. In addition, the “effective dose relative to toxic doses” value in data set [3] is on record as “much below the range of toxic doses”.

The record behind these values is patent US3960862A, “1,3-Diazacycloalkeno-[1,2,d]-benzo-[f-]-1,3,4-thiadiazepines” (BASF Aktiengesellschaft, priority 1973, dated 1976).
